In patent US9090570B2, “Compounds for inflammation and immune-related uses” (Synta Pharmaceuticals Corp., priority 2005, dated 2015):
Counter-ions that a name gives are not always drawn.

Tested on: IL-2 production
Assay: Inhibition of IL-2 production in PHA-activated Jurkat cells (ELISA)
Format: cell-based
Conditions: Homo sapiens, Jurkat, 20 h, PHA 2.5 μg/mL, IL-2 ELISA
Procedure: Jurkat cells were placed in a 96 well plate (0.5 million cells per well in 1% FBS medium) then a test compound of this invention was added at different concentrations. After 10 minutes, the cells were activated with PHA (final concentration 2.5 μg/mL) and incubated for 20 hours at 37° C. under CO2. The final volume was 200 μL. Following incubation, the cells were centrifuged and the supernatants collected and stored at −70° C. prior to assaying for IL-2 production. A commercial ELISA kit (IL-2 Eli-pair, Diaclone Research, Besancon, France) was used to detect production of IL-2, from which dose response curves were obtained. The IC50 value was calculated as the concentration at which 50% of maximum IL-2 production after stimulation was inhibited versus a non-stimulation control.

Compound	IC50 [µM]
O=C(Nc1cnc(-c2cc(C(F)(F)F)ccc2Cl)cn1)c1c(F)cccc1F [Compound 4, N-[5-(2-Chloro-5-trifluoromethyl-phenyl)-pyrazin-2-yl]-2,6-difluoro-benzamide hydrochloride]	0.006

Same assay, conditions: Homo sapiens, PHA 2.5 μg/mL, 20 hours, IL-2 ELISA

Compound	IC50 [µM]
Cc1cnccc1C(=O)Nc1cnc(-c2cc(-c3ncco3)ccc2C)cn1 [Compound 62, 3-Methyl-N-[5-(2-methyl-5-oxazol-2-yl-phenyl)-pyrazin-2-yl]-isonicotinamide]	0.0322
O=C(Nc1cnc(-c2cc(C(F)(F)F)ccc2Cl)cn1)c1c(F)cccc1F [Compound 1, N-[5-(2-Chloro-5-trifluoromethyl-phenyl)-pyrazin-2-yl]-2,6-difluoro-benzamide]	0.002
COc1ccc(OC)c(-c2cnc(NC(=O)c3c(F)cncc3F)cn2)c1 [Compound 118, N-[5-(2,5-Dimethoxy-phenyl)-pyrazin-2-yl]-3,5-difluoro-isonicotinamide]	0.034
Cc1ccc(-c2ncco2)cc1-c1cnc(NC(=O)c2c(F)cncc2F)cn1 [Compound 63, 3,5-Difluoro-N-[5-(2-methyl-5-oxazol-2-yl-phenyl)-pyrazin-2-yl]-isonicotinamide]	0.0185
COc1ccc(OC)c(-c2cnc(NC(=O)C3CCCCC3)cn2)c1 [Compound 120, Cyclohexanecarboxylic acid [5-(2,5-dimethoxy-phenyl)-pyrazin-2-yl]-amide]	0.352
Cc1ccc(-c2ncco2)cc1-c1cnc(NC(=O)c2snnc2C)cn1 [Compound 64, 4-Methyl-[1,2,3]thiadiazole-5-carboxylic acid [5-(2-methyl-5-oxazol-2-yl-phenyl)-pyrazin-2-yl]-amide]	0.055
Cc1ccc(-c2ncco2)cc1-c1cnc(NC(=O)C2CCCCC2)cn1 [Compound 121, Cyclohexanecarboxylic acid [5-(2-methyl-5-oxazol-2-yl-phenyl)-pyrazin-2-yl]-amide]	0.0385
COc1ccc(OC)c(-c2cnc(NC(=O)c3snnc3C)cn2)c1 [Compound 119, 4-Methyl-[1,2,3]thiadiazole-5-carboxylic acid [5-(2,5-dimethoxy-phenyl)-pyrazin-2-yl]-amide]	0.302
COc1ccc(OC)c(-c2cnc(NC(=O)c3c(F)cccc3F)cn2)c1 [Compound 110, N-[5-(2,5-Dimethoxy-phenyl)-pyrazin-2-yl]-2,6-difluoro-benzamide]	0.0157

The remaining lines, values ahead:

IC50 [µM]	Compound
0.207	COc1ccc(OC)c(-c2cnc(NC(=O)c3ccncc3F)cn2)c1 [Compound 113, N-[5-(2,5-Dimethoxy-phenyl)-pyrazin-2-yl]-3-fluoro-isonicotinamide]
0.145	COc1ccc(OC)c(-c2cnc(NC(=O)c3ccncc3C)cn2)c1 [Compound 117, N-[5-(2,5-Dimethoxy-phenyl)-pyrazin-2-yl]-3-methyl-isonicotinamide]
> 1	O=C(Nc1ccc(-c2cc(C(F)(F)F)ccc2Cl)nn1)c1c(F)cccc1F [Compound 60, N-[6-(2-Chloro-5-trifluoromethyl-phenyl)-pyridazin-3-yl]-2,6-difluoro-benzamide]
0.118	O=C(Nc1ncc(-c2cc(C(F)(F)F)ccc2Cl)cn1)c1c(F)cccc1F [Compound 116, N-[5-(2-Chloro-5-trifluoromethyl-phenyl)-pyrimidin-2-yl]-2,6-difluoro-benzamide]
0.0223	O=C(Nc1cnc(-c2cc(C(F)(F)F)ccc2Cl)cn1)C1CCCCC1 [Compound 112, Cyclohexanecarboxylic acid [5-(2-chloro-5-trifluoromethyl-phenyl)-pyrazin-2-yl]-amide]
0.115	O=C(Nc1cnc(-c2cc(C(F)(F)F)ccc2Cl)cn1)c1ccncc1F [Compound 2, N-[5-(2-Chloro-5-trifluoromethyl-phenyl)-pyrazin-2-yl]-3-fluoro-isonicotinamide]
0.133	Cc1ncccc1C(=O)Nc1cnc(-c2cc(C(F)(F)F)ccc2Cl)cn1 [Compound 111, N-[5-(2-Chloro-5-trifluoromethyl-phenyl)-pyrazin-2-yl]-2-methyl-nicotinamide]
0.0492	COC(=O)c1ccc(C)c(-c2cnc(NC(=O)c3ccncc3F)cn2)c1 [Compound 109, 3-{5-[(3-Fluoro-pyridine-4-carbonyl)-amino]-pyrazin-2-yl}-4-methyl-benzoic acid methyl ester]
0.654	O=C(Nc1cnc(-c2cc(C(F)(F)F)ccc2Cl)nc1)c1c(F)cccc1F [Compound 122, N-[2-(2-Chloro-5-trifluoromethyl-phenyl)-pyrimidin-5-yl]-2,6-difluoro-benzamide]
0.0616	Cc1nnsc1C(=O)Nc1cnc(-c2cc(C(F)(F)F)ccc2Cl)cn1 [Compound 114, 4-Methyl-[1,2,3]thiadiazole-5-carboxylic acid [5-(2-chloro-5-trifluoromethyl-phenyl)-pyrazin-2-yl]-amide]
0.0041	O=C(Nc1cnc(-c2cc(C(F)(F)F)ccc2Cl)cn1)c1c(F)cncc1F [Compound 115, N-[5-(2-Chloro-5-trifluoromethyl-phenyl)-pyrazin-2-yl]-3,5-difluoro-isonicotinamide]
0.0505	Cc1ccc(-c2ncco2)cc1-c1cnc(NC(=O)c2ccncc2F)cn1 [Compound 61, 3-Fluoro-N-[5-(2-methyl-5-oxazol-2-yl-phenyl)-pyrazin-2-yl]-isonicotinamide]
